Experimental data reported in PMC8448819, “The Arabidopsis MIK2 receptor elicits immunity by sensing a conserved signature from phytocytokines and microbes” (Nature Communications, 2021).
No end group written: not given here.

Legend:
[1] = test system: mik2-1 and mik2-2 mutant seedlings; assay type: in vivo, Arabidopsis thaliana; settings: in vivo
[2] = test system: PEPR1^ECD-MIK2^TK/pepr1,2 transgenic seedlings; experiment: Root growth assay, PEPR1^ECD-MIK2^TK/pepr1,2 seedlings; assay type: in vivo, Arabidopsis thaliana; settings: PEPR1^ECD-MIK2^TK/pepr1,2 compared to WT
Excerpt: The BAK1 (AT4G33430), SERK4 (AT2G13790), BIK1 (AT2G39660), and MIK2 (AT4G08850) coding sequences (CDSs) were amplified by PCR from Col-0 cDNA using the primers containing BamHI at the 5′ end and StuI at the 3′ end. The PCR products were digested by BamHI and StuI, followed by ligation into the pHBT-FLAG or pHBT-HA vector to generate pHBT-35S::BAK1-FLAG, pHBT-35S::SERK4-FLAG, pHBT-35S::BIK1-HA, pHBT-35S::MIK2-HA, and pHBT-35S::MIK2-GFP constructs[24],[41],[62]. MIK2^ECD (residues 1–707) and BAK1^ECD (residues 1–220) were amplified by PCR from Col-0 cDNA and cloned into pFastBac-1 vector with a C-terminal 6× HIS tag[25],[62]. The fusion protein vectors carrying MIK2^ECD or BAK1^ECD were used for insect cell expression. To obtain the binary vector pCAMBIA1300-35S::RLK7, a 2907-bp RLK7 CDS was PCR-amplified from WT cDNA using gene-specific primers with KpnI and SalI at the 5′ and 3′ ends, respectively, followed by KpnI and SalI digestion and ligation into the pCAMBIA1300 vector. […]
Cold stratified seeds were surface-sterilized with 70% (v/v) ethanol for 5 min and were sown on ½MS plates with or without peptides at indicated concentrations. Ten-day-old seedlings grown on plates vertically in a growth chamber were photographed, and the root lengths of seedlings were measured using Image J (http://rsb.info.nih.gov/ij/).

[3] = In vitro protein cleavage assay and LC-MS/MS; assay type: biochemical, Arabidopsis thaliana
Method: Recombinant HIS-SCOOP12 proteins were expressed in E. coli BL21 strain with an isopropyl β-D-1-thiogalactopyranoside (IPTG)-inducible system and purified with Ni-NTA agarose (QIAGEN, #166048536) in buffer containing 50 mM Tris-HCl pH 7.5 and 300 mM NaCl. For in vitro protein cleavage assay, 5 μg of purified HIS-SCOOP12 proteins were incubated with 10 μL protein extracts isolated from 10-day-old Arabidopsis WT seedlings or protein extraction buffer (50 mM HEPES, pH 7.4, 10 mM EDTA, and 1× protease inhibitor cocktail, Sigma) following a published protocol[36] for 5 h at room temperature with rotation. […] The processed SCOOP12 bands were cut from SDS-PAGE for LC-MS/MS analysis.
The processed SCOOP12 bands were in-gel digested following a published protocol, except that digestion was conducted with Lys-C (Promega, Madison, WI, USA). The digested peptides were desalted using micro ZipTip mini-reverse phase (Millipore). In brief, after wetting (with 50% acetonitrile) and equilibrating a ZipTip (with 0.1% formic acid), the peptides were bound to C-18 material. A subsequent washing step with 0.1% formic acid was followed by a final elution with 60% acetonitrile and 0.1% formic acid. The samples were lyophilized to dryness using a labconco speedvac (Centrivap, Labconco Inc., USA). The resulting peptides were resuspended in 0.1% formic acid for mass spectrometric analysis. The mass spectrometry data acquisition was performed on an EASY-nLC 1200 ultraperformance liquid chromatography system (Thermo Scientific Inc., San Jose, CA) connected to an Orbitrap Q-Exactive HF instrument equipped with a nano-electrospray source (Thermo Scientific Inc., San Jose, CA)[67]. The peptide samples were loaded to a C18 trapping column (75 μm i.d. × 2 cm, Acclaim PepMap® 100 particles with 3 μm size and 100 Å pores) and then eluted using a C18 analytical column (75 μm i.d. × 25 cm, 2 μm particles with 100 Å pore size). […] All MS/MS samples were analyzed using Mascot Daemon (Matrix Science, London, UK; version 2.4.0). […]

[4] = biological target: T1, MIK2^ECD, extracellular LRR domain of MALE DISCOVERER 1-INTERACTING RECEPTOR-LIKE KINASE 2 (Arabidopsis thaliana, UniProt Q8VZG8 44-707); experiment: SPR; settings: both partners purified
T1 construct: also called MIK2^ECD-6×HIS
T1 sequence (looked up): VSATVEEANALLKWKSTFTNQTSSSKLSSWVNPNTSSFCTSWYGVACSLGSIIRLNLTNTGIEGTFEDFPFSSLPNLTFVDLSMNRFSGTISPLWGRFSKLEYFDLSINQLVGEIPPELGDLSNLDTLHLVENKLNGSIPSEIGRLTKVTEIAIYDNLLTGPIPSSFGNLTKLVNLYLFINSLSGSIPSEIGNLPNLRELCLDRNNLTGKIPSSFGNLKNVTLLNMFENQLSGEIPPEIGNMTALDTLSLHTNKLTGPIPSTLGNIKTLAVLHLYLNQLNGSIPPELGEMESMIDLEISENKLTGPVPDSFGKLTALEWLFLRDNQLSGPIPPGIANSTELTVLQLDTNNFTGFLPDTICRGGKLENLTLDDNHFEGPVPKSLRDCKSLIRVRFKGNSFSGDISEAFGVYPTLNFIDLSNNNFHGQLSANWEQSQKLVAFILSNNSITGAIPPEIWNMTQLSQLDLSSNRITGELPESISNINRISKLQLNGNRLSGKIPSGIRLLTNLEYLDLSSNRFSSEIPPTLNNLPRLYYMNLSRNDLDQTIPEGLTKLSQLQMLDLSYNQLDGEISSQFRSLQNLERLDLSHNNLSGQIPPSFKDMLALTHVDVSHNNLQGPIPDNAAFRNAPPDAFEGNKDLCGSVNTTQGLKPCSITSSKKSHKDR

[5] = biological target: T1, MIK2^ECD, extracellular LRR domain of …; experiment: ITC; MicroCal ITC200, 25 °C, 200 mM HEPES pH 7.0, 100 mM NaCl; 600 µM peptide injected into 30 µM MIK2^ECD in the cell; settings: both partners purified

With “ATKVKAKQRGKEKVSSGRPGQHN [Pep1, plant endogenous peptide recognized by PEPR1/PEPR2]” the “response of mik2-1 to Pep1” value [1] was “responded to the Pep1 treatment similarly to WT plants”, the “brown roots and darkened root-hypocotyl junctions” value [2] was “brown roots, and darkened root-hypocotyl junctions” and the “root growth retardation” value [2] was “severe root growth retardation”.

In the case of “HIS-SCOOP12: recombinant HIS-SCOOP12 proteins expressed in E. coli (LMGSGASGPVRSSQSSQAGGRFNDADPIAIDYGKY; also: His tag (not in given chain); UniProt B3H7I1 44-78, looked up)”, the “proteolytic processing by Arabidopsis protein extracts” value ([3]; 5 μg HIS-SCOOP12, seedling extract, 5 h, room temperature, pH 7.4) is reported as “proteolytically processed upon incubation with Arabidopsis protein extracts”, the cleavage site ([3]; Nano-LC-MS/MS) is reported as “cleaved after arginine 43 (R^43)” and the “identified SCOOP12 fragment” value ([3]; Nano-LC-MS/MS, in-gel Lys-C digestion) is reported as “from leucine 44 (L^44) to lysine 78 (Y^78)”.

B1: SCOOP12 peptide (SERINE-RICH ENDOGENOUS PEPTIDE 12) (peptide)
chain: PVRSSQSSQAGGR
modifications: Synthetic peptide, unlabelled in ITC/SPR; an N-terminal TAMRA version was used for in vivo binding. Exact limits are in Supplementary Data 4 (not shown). Limits taken as the commonly used 13-mer …
With B1 the Kd [4] was 1.78 µM, the Kd [5] was 3.18 µM and the “stoichiometry N” value [5] was ~1.

B2: SCOOP12^SS/AA peptide (peptide)
chain: PVRSAQASQAGGR
modifications: Synthetic peptide. Exact limits are in Supplementary Data 4 (not shown); same conventional 13-mer as m1, with both SxS-motif serines changed to alanine.
For B2, the Kd [4] was 3480 µM.
